Reference: PubChem BioAssay (NCI)
Values joined by “and” are separate entries in the source; they are usually repeats but may differ in a detail not shown here. Equal values may be shown once.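 Results reflect a 48-hour exposure of cells in 96-well plates to compound at five concentrations. The concentration for 50% growth inhibition is given as GI50. Definition used: TGI = concentration required for complete inhibition of growth.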

Assays:
Assay in all cases: NCI tumour cell line growth inhibition, 48 h
786-0 renal = system: 786-0 renal
A498 renal = system: A498 renal
A549 NSCLC = system: A549 NSCLC
ACHN renal = system: ACHN renal
CAKI-1 renal = system: CAKI-1 renal
CCRF-CEM leukemia = system: CCRF-CEM leukemia
COLO 205 colon = system: COLO 205 colon
DLD-1 colon = system: DLD-1 colon
HCC-2998 colon = system: HCC-2998 colon
HCT-116 colon = system: HCT-116 colon
HCT-15 colon = system: HCT-15 colon
HL-60(TB) leukemia = system: HL-60(TB) leukemia
HOP-62 NSCLC = system: HOP-62 NSCLC
HOP-92 NSCLC = system: HOP-92 NSCLC
HT29 colon = system: HT29 colon
IGROV1 ovarian = system: IGROV1 ovarian
K-562 leukemia = system: K-562 leukemia
KM12 colon = system: KM12 colon
KM20L2 colon = system: KM20L2 colon
LOX IMVI melanoma = system: LOX IMVI melanoma
LXFL 529 NSCLC = system: LXFL 529 NSCLC
M14 melanoma = system: M14 melanoma
M19-MEL melanoma = system: M19-MEL melanoma
MALME-3M melanoma = system: MALME-3M melanoma
MOLT-4 leukemia = system: MOLT-4 leukemia
NCI-H226 lung = system: NCI-H226 lung
NCI-H460 lung = system: NCI-H460 lung
NCI-H522 lung = system: NCI-H522 lung
OVCAR-3 ovarian = system: OVCAR-3 ovarian
OVCAR-5 ovarian = system: OVCAR-5 ovarian
OVCAR-8 ovarian = system: OVCAR-8 ovarian
RPMI-8226 leukemia = system: RPMI-8226 leukemia
RXF-631 renal = system: RXF-631 renal
SF-268 CNS = system: SF-268 CNS
SF-295 CNS = system: SF-295 CNS
SF-539 CNS = system: SF-539 CNS
SK-MEL-2 melanoma = system: SK-MEL-2 melanoma
SK-MEL-5 melanoma = system: SK-MEL-5 melanoma
SK-OV-3 ovarian = system: SK-OV-3 ovarian
SN12C renal = system: SN12C renal
SNB-75 CNS = system: SNB-75 CNS
SR leukemia = system: SR leukemia
SW-620 colon = system: SW-620 colon
UACC-62 melanoma = system: UACC-62 melanoma
UO-31 renal = system: UO-31 renal
XF 498 CNS = system: XF 498 CNS
DMS 114 small cell lung = system: DMS 114 small cell lung
DMS 273 small cell lung = system: DMS 273 small cell lung
HOP-18 NSCLC = system: HOP-18 NSCLC
MCF7 breast = system: MCF7 breast
MDA-N = system: MDA-N
NCI/ADR-RES ovarian = system: NCI/ADR-RES ovarian
P388 leukemia = system: P388 leukemia
P388/ADR leukemia = system: P388/ADR leukemia
SK-MEL-28 melanoma = system: SK-MEL-28 melanoma
SN12K1 renal = system: SN12K1 renal
SNB-78 CNS = system: SNB-78 CNS
EKVX NSCLC = system: EKVX NSCLC
NCI-H23 lung = system: NCI-H23 lung
OVCAR-4 ovarian = system: OVCAR-4 ovarian
RXF 393 renal = system: RXF 393 renal
SNB-19 CNS = system: SNB-19 CNS
TK-10 renal = system: TK-10 renal
U251 CNS = system: U251 CNS
UACC-257 melanoma = system: UACC-257 melanoma

CCOC(=O)N1c2c(ccn2C)-c2ccn(C)c2N1C(=O)OCC
TGI (786-0 renal): 23.1 µM | TGI (A498 renal): > 100 µM | TGI (A549 NSCLC): 39.4 µM | TGI (ACHN renal): 29.6 µM | TGI (CAKI-1 renal): 44.8 µM | TGI (CCRF-CEM leukemia): 13.8 µM | TGI (COLO 205 colon): 57.1 µM | TGI (DLD-1 colon): 29.5 µM | TGI (HCC-2998 colon): 37.9 µM | TGI (HCT-116 colon): 29.4 µM | TGI (HCT-15 colon): 26.5 µM | TGI (HL-60(TB) leukemia): 26.7 µM | TGI (HOP-62 NSCLC): > 100 µM | TGI (HOP-92 NSCLC): 63.7 µM | TGI (HT29 colon): 30.1 µM | TGI (IGROV1 ovarian): 52.4 µM | TGI (K-562 leukemia): 42.4 µM | TGI (KM12 colon): 57.3 µM | TGI (KM20L2 colon): 27.8 µM | TGI (LOX IMVI melanoma): 25.6 µM | TGI (LXFL 529 NSCLC): 30.9 µM | TGI (M14 melanoma): 30.8 µM | TGI (M19-MEL melanoma): 80 µM | TGI (MALME-3M melanoma): 37.1 µM | TGI (MOLT-4 leukemia): 40.4 µM | TGI (NCI-H226 lung): 37.5 µM | TGI (NCI-H460 lung): 49.3 µM | TGI (NCI-H522 lung): 25 µM | TGI (OVCAR-3 ovarian): 27.1 µM | TGI (OVCAR-5 ovarian): 35.5 µM | TGI (OVCAR-8 ovarian): 27.9 µM | TGI (RPMI-8226 leukemia): 54.3 µM | TGI (RXF-631 renal): 45.8 µM | TGI (SF-268 CNS): 38.7 µM | TGI (SF-295 CNS): 29.7 µM | TGI (SF-539 CNS): 38.2 µM | TGI (SK-MEL-2 melanoma): 38.8 µM | TGI (SK-MEL-5 melanoma): > 100 µM | TGI (SK-OV-3 ovarian): 77.3 µM | TGI (SN12C renal): 29.6 µM | TGI (SNB-75 CNS): 33.7 µM | TGI (SR leukemia): 43.8 µM | TGI (SW-620 colon): 28.6 µM | TGI (UACC-62 melanoma): 31.3 µM | TGI (UO-31 renal): 35.4 µM | TGI (XF 498 CNS): 30.7 µM

CC(=O)O[C@H]1C(=O)[C@@]2(C)[C@H]([C@H](OC(=O)c3ccccc3)[C@]3(O)C[C@H](OC(=O)[C@H](O)[C@@H](NC(=O)c4ccccc4)c4ccccc4)C(C)=C1C3(C)C)[C@]1(OC(C)=O)CO[C@@H]1C[C@@H]2O
TGI (A549 NSCLC): 25 µM and > 100 µM and 67.7 µM | GI50 (DLD-1 colon): 0.0551 µM | TGI (DLD-1 colon): 24.4 µM and > 100 µM | TGI (DMS 114 small cell lung): 0.0217 µM | TGI (DMS 273 small cell lung): 3.68 µM | TGI (HOP-18 NSCLC): 25 µM | GI50 (LXFL 529 NSCLC): 0.00356 µM | TGI (LXFL 529 NSCLC): 55.2 µM | TGI (MCF7 breast): 15.1 µM and 88.4 µM and 56.1 µM | GI50 (MDA-N): 0.0025 µM and 0.0231 µM | TGI (NCI/ADR-RES ovarian): 15.1 µM and > 100 µM and 37.5 µM | TGI (P388 leukemia): 25 µM | TGI (P388/ADR leukemia): 25 µM | TGI (SK-MEL-28 melanoma): 25 µM and > 71 µM | TGI (SN12K1 renal): 25 µM | GI50 (SNB-78 CNS): 0.087 µM | TGI (SNB-78 CNS): 24.3 µM and 45.1 µM | TGI (XF 498 CNS): 0.0355 µM

CCOC(=O)/C(=C\c1ccc(N(CCC#N)CCC#N)cc1)NC(=O)c1cc([N+](=O)[O-])ccc1Cl
TGI (786-0 renal): > 100 µM | TGI (A498 renal): > 100 µM | TGI (A549 NSCLC): > 100 µM | TGI (ACHN renal): > 100 µM | TGI (CAKI-1 renal): > 100 µM | TGI (CCRF-CEM leukemia): > 100 µM | TGI (COLO 205 colon): > 100 µM | TGI (DLD-1 colon): > 100 µM | TGI (DMS 114 small cell lung): > 100 µM | TGI (DMS 273 small cell lung): > 100 µM | TGI (EKVX NSCLC): > 100 µM | TGI (HCC-2998 colon): > 100 µM | TGI (HCT-116 colon): > 100 µM | TGI (HCT-15 colon): > 100 µM | TGI (HL-60(TB) leukemia): > 100 µM | TGI (HOP-18 NSCLC): > 100 µM | TGI (HOP-62 NSCLC): > 100 µM | TGI (HT29 colon): > 100 µM | TGI (IGROV1 ovarian): > 100 µM | TGI (K-562 leukemia): > 100 µM | TGI (KM12 colon): > 100 µM | TGI (KM20L2 colon): > 100 µM | TGI (LOX IMVI melanoma): > 100 µM | TGI (LXFL 529 NSCLC): > 100 µM | TGI (M14 melanoma): > 100 µM | TGI (M19-MEL melanoma): > 100 µM | TGI (MALME-3M melanoma): > 100 µM | TGI (MOLT-4 leukemia): > 100 µM | TGI (NCI-H226 lung): > 100 µM | TGI (NCI-H23 lung): > 100 µM | TGI (NCI-H460 lung): > 100 µM | TGI (NCI-H522 lung): > 100 µM | TGI (OVCAR-3 ovarian): > 100 µM | TGI (OVCAR-4 ovarian): > 100 µM | TGI (OVCAR-5 ovarian): > 100 µM | TGI (OVCAR-8 ovarian): > 100 µM | TGI (RPMI-8226 leukemia): > 100 µM | TGI (RXF 393 renal): > 100 µM | TGI (RXF-631 renal): > 100 µM | TGI (SF-268 CNS): > 100 µM | TGI (SF-295 CNS): > 100 µM | TGI (SF-539 CNS): > 100 µM | TGI (SK-MEL-2 melanoma): > 100 µM | TGI (SK-MEL-28 melanoma): > 100 µM | TGI (SK-MEL-5 melanoma): > 100 µM | TGI (SK-OV-3 ovarian): > 100 µM | TGI (SN12C renal): > 100 µM | TGI (SNB-19 CNS): > 100 µM | TGI (SNB-75 CNS): > 100 µM | TGI (SNB-78 CNS): > 100 µM | TGI (SW-620 colon): > 100 µM | TGI (TK-10 renal): > 100 µM | TGI (U251 CNS): > 100 µM | TGI (UACC-257 melanoma): > 100 µM | TGI (UACC-62 melanoma): > 100 µM | TGI (UO-31 renal): > 100 µM

O=C1[C@H]2ON(c3ccccc3)C(c3ccccc3)[C@H]2C(=O)N1c1ccc(Cc2ccc(N3C(=O)[C@@H]4ON(c5ccccc5)C(c5ccccc5)[C@@H]4C3=O)cc2)cc1 (stereo not given in full)
TGI (786-0 renal): > 100 µM | TGI (A498 renal): > 100 µM | TGI (A549 NSCLC): > 100 µM | TGI (ACHN renal): > 100 µM | TGI (CAKI-1 renal): > 100 µM | TGI (CCRF-CEM leukemia): > 100 µM | TGI (COLO 205 colon): > 100 µM | TGI (DLD-1 colon): > 100 µM | TGI (DMS 114 small cell lung): > 100 µM | TGI (DMS 273 small cell lung): > 100 µM | TGI (HCC-2998 colon): > 100 µM | TGI (HCT-15 colon): > 100 µM | TGI (HL-60(TB) leukemia): > 100 µM | TGI (HOP-18 NSCLC): > 100 µM | TGI (HOP-62 NSCLC): > 100 µM | TGI (HOP-92 NSCLC): > 100 µM | TGI (HT29 colon): > 100 µM | TGI (IGROV1 ovarian): > 100 µM | TGI (K-562 leukemia): > 100 µM | TGI (KM12 colon): > 100 µM | TGI (KM20L2 colon): > 100 µM | TGI (LOX IMVI melanoma): > 100 µM | TGI (LXFL 529 NSCLC): > 100 µM | TGI (M14 melanoma): > 100 µM | TGI (MALME-3M melanoma): > 100 µM | TGI (MOLT-4 leukemia): > 100 µM | TGI (NCI-H226 lung): > 100 µM | TGI (NCI-H23 lung): > 100 µM | TGI (NCI-H460 lung): > 100 µM | TGI (OVCAR-3 ovarian): > 100 µM | TGI (OVCAR-4 ovarian): > 100 µM | TGI (OVCAR-5 ovarian): > 100 µM | TGI (RPMI-8226 leukemia): > 100 µM | TGI (RXF 393 renal): > 100 µM | TGI (RXF-631 renal): > 100 µM | TGI (SF-268 CNS): > 100 µM | TGI (SF-295 CNS): > 100 µM | TGI (SF-539 CNS): > 100 µM | TGI (SK-MEL-2 melanoma): > 100 µM | TGI (SK-MEL-28 melanoma): > 100 µM | TGI (SK-MEL-5 melanoma): > 100 µM | TGI (SK-OV-3 ovarian): > 100 µM | TGI (SN12C renal): > 100 µM | TGI (SNB-75 CNS): > 100 µM | TGI (SNB-78 CNS): > 100 µM | TGI (SW-620 colon): > 100 µM | TGI (U251 CNS): > 100 µM | TGI (UACC-257 melanoma): > 100 µM | TGI (UACC-62 melanoma): > 100 µM | TGI (UO-31 renal): > 100 µM
